These results are taken from patent US12252477B2, “Applications of known and novel cannabinoids” (Bessor Pharma, LLC, priority 2018, dated 2025).

In this assay the target is T1, TRPV1 channels (Homo sapiens, UniProt Q8NER1).
T1 construct: expressed in transfected cells; host or cells: HEK TRex (HEK 293 T-REx) cells stably carrying a tetracycline-inducible TRPV1 transgene
Nature of the assay: Calcium assay (Fluo-4) in HEK-TRPV1 cells, dose response comparison. In kind it is cell-based. To be noted: Fluo-4 loaded, 1 mM external calcium chloride, 0-20 seconds baseline, compound added at 20 seconds, FIGS. 1A-1D. Here is the method: Molecular Pharmacology, 2016, volume 90, pages 300-308) HEK 293 cells with TRPV1 channels have been used as model systems (P. Geppetti and M. Trevisani, Activation and sensitisation of the vanilloid receptor: role in gastrointestinal inflammation and function, British Journal of Pharmacology, 2004, volume 141, pages 1313-1320);
HEK TRexTRPV1 cultured in DMEM, 10% Fetal Bovine Serum, 2 mM L-glutamine, 10 microgramg/ml Blasticidin (Calbiochem, San Diego Calif.), […] Zeocin (InvivoGen, San Diego Calif.), followed by inducing indicated transgene expression using 1 microgram/ml Tetracycline for 16-24 hrs. Comparisons made to untransfected HEK cells or HEKTRexTRPV1 with or without induction.
Cells washed and incubated with 0.2 micromolar Fluo-4 [54] for 30 minutes at 37° C. in a standard modified Ringer's solution of the following composition (in mM): NaCl 145, KCl 2.8, CsCl 10, CaCl2 10, MgCl2 2, glucose 10, Hepes. NaOH 10, pH 7.4, 330 mOsm. Cells transferred to 96-well plates at 50,000 cells/well and stimulated as indicated. Calcium signals acquired using a Flexstation 3 (Molecular Devices, Sunnydale, USA). Data are analyzed according to the methods in 1. Diaz-Franulic, J. Caceres-Molina, R. V. Sepulveda, F. Gonzalez-Nilo, R. Latorre, Structure-Driven Pharmacology of Transient Receptor Potential Channel Vanilloid 1, Molecular Pharmacology, 2016, volume 90, pages 300-8. […]

Structures are written as SMILES.

T1 sequence (Q8NER1 whole entry): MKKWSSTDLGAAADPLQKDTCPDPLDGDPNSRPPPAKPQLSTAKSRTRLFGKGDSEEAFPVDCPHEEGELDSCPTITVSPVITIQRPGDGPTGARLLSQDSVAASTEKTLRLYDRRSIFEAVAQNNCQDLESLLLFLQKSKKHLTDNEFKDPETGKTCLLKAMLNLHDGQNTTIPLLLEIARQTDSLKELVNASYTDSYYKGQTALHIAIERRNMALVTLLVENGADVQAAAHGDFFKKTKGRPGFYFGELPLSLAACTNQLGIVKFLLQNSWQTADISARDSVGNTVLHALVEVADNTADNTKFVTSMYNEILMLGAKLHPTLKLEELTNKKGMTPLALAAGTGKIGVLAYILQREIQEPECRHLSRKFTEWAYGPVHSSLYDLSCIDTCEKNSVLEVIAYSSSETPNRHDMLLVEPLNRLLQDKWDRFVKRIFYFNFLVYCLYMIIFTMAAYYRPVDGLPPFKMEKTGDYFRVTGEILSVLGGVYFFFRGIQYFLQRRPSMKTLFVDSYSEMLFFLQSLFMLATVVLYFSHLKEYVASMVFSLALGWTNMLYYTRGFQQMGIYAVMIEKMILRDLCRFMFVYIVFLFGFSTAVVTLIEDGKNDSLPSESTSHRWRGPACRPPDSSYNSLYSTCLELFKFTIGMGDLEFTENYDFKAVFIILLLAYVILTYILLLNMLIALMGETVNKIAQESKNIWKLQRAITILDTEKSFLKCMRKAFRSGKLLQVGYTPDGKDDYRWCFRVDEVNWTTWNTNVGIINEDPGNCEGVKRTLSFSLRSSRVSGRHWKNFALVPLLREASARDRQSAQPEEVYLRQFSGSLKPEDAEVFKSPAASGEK

Take `C=C(C)[C@@H]1CCC(C)=C[C@H]1c1c(O)cc(CCCCC)cc1O` [cannabidiol (11, CBD), Cannabidiol]: the ““biological finger print” and dose response on TRPV 1 channels (calcium signal), synthesized versus reference standard cannabidiol” value is “same “biological finger print” and dose response”.
